From the NIST ThermoML archive (doi:10.1016/j.jct.2017.06.008)

Legend:
[1] = refractive index (Na D-line) (dimensionless); xn = mol fraction of the nth substance listed; settings: 100 kPa, Liquid, Standard Abbe refractometry
[2] = xn = mol fraction of the nth substance listed; settings: 100 kPa, Liquid; for speed of sound: Frequency=3 MHz, Single path-length method; for mass density: Vibrating tube method

CC(=O)CC(C)C [4-methylpentan-2-one] + CC(C)=O
Settings | mass density, 293.15 K [kg/m3] | mass density, 303.15 K [kg/m3] | mass density, 313.15 K [kg/m3] | refractive index, 293.15 K | refractive index, 303.15 K | refractive index, 313.15 K | speed of sound, 293.15 K [m/s] | speed of sound, 303.15 K [m/s] | speed of sound, 313.15 K [m/s]
[1], x1 = 0.1004 | – | – | – | 1.365 | 1.359 | 1.354 | – | – | –
[1], x1 = 0.1992 | – | – | – | 1.37 | 1.364 | 1.359 | – | – | –
[1], x1 = 0.3012 | – | – | – | 1.374 | 1.369 | 1.365 | – | – | –
[1], x1 = 0.396 | – | – | – | 1.378 | 1.373 | 1.368 | – | – | –
[1], x1 = 0.5005 | – | – | – | 1.382 | 1.377 | 1.372 | – | – | –
[1], x1 = 0.6912 | – | – | – | 1.388 | 1.383 | 1.379 | – | – | –
[1], x1 = 0.7996 | – | – | – | 1.391 | 1.386 | 1.382 | – | – | –
[1], x1 = 0.8992 | – | – | – | 1.394 | 1.389 | 1.384 | – | – | –
[1], x1 = 1 | – | – | – | 1.396 | 1.391 | 1.387 | – | – | –
[2], x1 = 0.1004 | 791 | 780 | 769 | – | – | – | 1185.7 | 1140.9 | 1096.8
[2], x1 = 0.1992 | 793 | 782 | 771 | – | – | – | 1186.8 | 1143 | 1099.4
[2], x1 = 0.3012 | 794 | 783 | 773 | – | – | – | 1189.2 | 1145.9 | 1102.9
[2], x1 = 0.396 | 795 | 785 | 774 | – | – | – | 1191.8 | 1149 | 1106.4
[2], x1 = 0.5005 | 796 | 786 | 776 | – | – | – | 1194.8 | 1152.4 | 1110.4
[2], x1 = 0.6912 | 798 | 788 | 779 | – | – | – | 1201.1 | 1159.5 | 1118.3
[2], x1 = 0.7996 | 799 | 790 | 780 | – | – | – | 1205.2 | 1163.6 | 1122.9
[2], x1 = 0.8992 | 799 | 791 | 781 | – | – | – | 1208 | 1167.2 | 1126.9
[2], x1 = 1 | 800 | 792 | 782 | – | – | – | 1212.3 | 1171.4 | 1131.4

CC(=O)CC(C)C [4-methylpentan-2-one] + C[S+](C)[O-]
Settings | mass density, 293.15 K [kg/m3] | mass density, 303.15 K [kg/m3] | mass density, 313.15 K [kg/m3] | refractive index, 293.15 K | refractive index, 303.15 K | refractive index, 313.15 K | speed of sound, 293.15 K [m/s] | speed of sound, 303.15 K [m/s] | speed of sound, 313.15 K [m/s]
[1], x1 = 0.1002 | – | – | – | 1.466 | 1.462 | 1.458 | – | – | –
[1], x1 = 0.2004 | – | – | – | 1.455 | 1.451 | 1.446 | – | – | –
[1], x1 = 0.3004 | – | – | – | 1.445 | 1.441 | 1.436 | – | – | –
[1], x1 = 0.4007 | – | – | – | 1.436 | 1.432 | 1.427 | – | – | –
[1], x1 = 0.4982 | – | – | – | 1.428 | 1.423 | 1.419 | – | – | –
[1], x1 = 0.5999 | – | – | – | 1.42 | 1.416 | 1.411 | – | – | –
[1], x1 = 0.6992 | – | – | – | 1.413 | 1.409 | 1.404 | – | – | –
[1], x1 = 0.7995 | – | – | – | 1.407 | 1.402 | 1.398 | – | – | –
[1], x1 = 0.8981 | – | – | – | 1.401 | 1.397 | 1.392 | – | – | –
[1], x1 = 1 | – | – | – | 1.396 | 1.391 | 1.387 | – | – | –
[2], x1 = 0.1002 | 1052 | 1043 | 1033 | – | – | – | 1453.8 | 1418.9 | 1384.7
[2], x1 = 0.2004 | 1010 | 1001 | 991 | – | – | – | 1409.2 | 1373.8 | 1339.2
[2], x1 = 0.3004 | 973 | 964 | 954 | – | – | – | 1371.9 | 1336 | 1300.8
[2], x1 = 0.4007 | 940 | 931 | 921 | – | – | – | 1338.7 | 1302.9 | 1267.1
[2], x1 = 0.4982 | 912 | 902 | 893 | – | – | – | 1311.8 | 1275.3 | 1238.9
[2], x1 = 0.5999 | 885 | 875 | 866 | – | – | – | 1287.1 | 1249.8 | 1212.7
[2], x1 = 0.6992 | 861 | 851 | 842 | – | – | – | 1266.1 | 1227.9 | 1190
[2], x1 = 0.7995 | 839 | 830 | 820 | – | – | – | 1246.5 | 1207.5 | 1168.9
[2], x1 = 0.8981 | 819 | 810 | 801 | – | – | – | 1229.3 | 1189.2 | 1149.9
[2], x1 = 1 | 801 | 792 | 782 | – | – | – | 1212.3 | 1171.4 | 1131.4
